We go through five compounds from PMC11224403, “Des-acyl ghrelin reduces alcohol intake and alcohol-induced reward in rodents” (Translational Psychiatry, 2024).

No end group written: not given here.

One assay concerns CB1 receptor. In words: Aquoscreen receptor activity assay, CB1. The assay is classed as cell-based, human. Particulars: 60 µM JWH-018, also at 7.5 µM; luminescence.
The test system of a further assay is dopamine in NAc shell. In words: In vivo microdialysis, dopamine release in NAc shell. On the set-up: species or system Wistar rats. The note with it: male rats (methods), alcohol 2 g/kg IP, n = 8 per group. From the text: Male and female Rcc Han Wistar rats (8–12 weeks old at arrival; Envigo, Horst, Netherlands) were used for the alcohol drinking and locomotor activity experiments as they drink alcohol to intoxicating levels. For in vivo microdialysis studies male Wistar rats (Charles River, Calco, Italy) were used as they display robust dopamine levels in NAc shell after alcohol injection. […] All rodents were allowed to habituate to the animal facility at least one week before they entered an experiment. […] The sample sizes of each experiment were based on previous experience in which statistical significance has been detected. The person who conducted the experiments, and analyzed the collected data was aware of the treatment allocation. Only preset exclusion criteria were used when analyzing the data obtained in attempts to exclude confounding factors in analyzing data. In the alcohol drinking experiments leaking bottles and low alcohol consumption (<3.0 g/kg for males; <3.5 g/kg for females) were preset exclusion criteria. The preset exclusion criterion in the ex vivo HPLC-EC, ELISA, and recombinant cell line experiments was contamination of the sample. Misplaced probes, technical difficulties, and damages to the surgery area were preset exclusion criteria for the in vivo microdialysis experiment. Intra-cage male aggression was the preset exclusion criterion for the locomotor activity and CPP experiments. To minimize tentative confounding factors, the order of treatments was stratified, with treatments being mixed for each animal cage and for each apparatus used as well as balancing the alcohol intake between future treatment groups. […]
The data from drinking experiments were analyzed by unpaired t-test or repeated two-way ANOVA. A two-tailed unpaired t-test analyzed the ELISA, ex vivo HPLC-EC, and cFOS data. […] A one-way ANOVA with Bonferroni post hoc tests and unpaired t-test analyzed the locomotor activity and CPP data, respectively. The in vivo microdialysis experiments were evaluated by a repeated two-way ANOVA followed by the Bonferroni post hoc test.

The subject of another assay is male mice. Description: Locomotor activity test, alcohol-induced stimulation and DAG per se, mice. The assay is classed as in vivo, NMRI mice. From the text:
Male and female Rcc Han Wistar rats (8–12 weeks old at arrival; Envigo, Horst, Netherlands) were used for the alcohol drinking and locomotor activity experiments as they drink alcohol to intoxicating levels. For in vivo microdialysis studies male Wistar rats (Charles River, Calco, Italy) were used as they display robust dopamine levels in NAc shell after alcohol injection. […] All rodents were allowed to habituate to the animal facility at least one week before they entered an experiment. […] The sample sizes of each experiment were based on previous experience in which statistical significance has been detected. The person who conducted the experiments, and analyzed the collected data was aware of the treatment allocation. Only preset exclusion criteria were used when analyzing the data obtained in attempts to exclude confounding factors in analyzing data. In the alcohol drinking experiments leaking bottles and low alcohol consumption (<3.0 g/kg for males; <3.5 g/kg for females) were preset exclusion criteria. The preset exclusion criterion in the ex vivo HPLC-EC, ELISA, and recombinant cell line experiments was contamination of the sample. Misplaced probes, technical difficulties, and damages to the surgery area were preset exclusion criteria for the in vivo microdialysis experiment. Intra-cage male aggression was the preset exclusion criterion for the locomotor activity and CPP experiments. To minimize tentative confounding factors, the order of treatments was stratified, with treatments being mixed for each animal cage and for each apparatus used as well as balancing the alcohol intake between future treatment groups.
Alcohol was in the behavioral and neurochemical tests injected (intraperitoneally, IP) 5 min before the test.
Locomotor activity tests were conducted in ventilated and dim-lit (4 lux) open field arenas (420 × 420 × 200 mm; Med Associates Inc; Georgia, Vermont, USA). Infra-red beams detected distance traveled, number of jumps, vertical counts, average velocity, stereotypic counts, number of inner zone entries, and time spent in the inner/outer zones of each animal.
In the first test, after 60 min of habituation, male (n = 24) or female (n = 24) rats were injected with vehicle or DAG (0.5, 1.0, or 2.0 mg/kg). 15 min later the activity was monitored for another 60 min. In the second locomotor activity experiment, male mice (n = 32) were allowed to habituate for 60 min. After that, they were injected with vehicle or DAG (0.25, 0.5, or 1.0 mg/kg). After 15 min the activity was monitored for another 60 min.
Therefore, male mice were (n = 32) injected with DAG (1.0 mg/kg) or vehicle 15 min before alcohol or vehicle. The activity registration started 5 min later and was recorded for an additional 60 min. Identical locomotor activity experiments were conducted in new male mice (n = 32), where a lower dose of DAG (0.5 mg/kg) was combined with alcohol.
The data from drinking experiments were analyzed by unpaired t-test or repeated two-way ANOVA. A two-tailed unpaired t-test analyzed the ELISA, ex vivo HPLC-EC, and cFOS data. In addition, the Pearson test correlated the serum levels and the mean values of alcohol intake in rats. A one-way ANOVA with Bonferroni post hoc tests and unpaired t-test analyzed the locomotor activity and CPP data, respectively. The in vivo microdialysis experiments were evaluated by a repeated two-way ANOVA followed by the Bonferroni post hoc test.

For a further assay, the system named is NET. In words: Transporter inhibition in recombinant cell line, NET. The format is cell-based, human. Particulars: cocaine at 12.5 µM and 6.25 µM (top concentration 50 µM); 3 h, fluorescence.
The test system of assay [1] is human transporter of dopamine (DAT). Description: Transporter inhibition in recombinant cell line (neurotransmitter transporter uptake assay), DAT. The assay is classed as cell-based. Particulars: cocaine at such concentration (12.5 µM and 6.25 µM); CHO-K1 cells, 3 h, fluorescence.
Another assay has as its system SERT. Description: Transporter inhibition in recombinant cell line, SERT. The assay is classed as cell-based, human. Particulars: cocaine at 12.5 µM and 6.25 µM (top concentration 50 µM); 3 h, fluorescence.
Assay [2] concerns high alcohol-consuming mice. The note with it: central infusion, ref [47]; cited from earlier work.
The subject of assay [3] is memory function via hippocampal mechanisms. The note with it: ref [50], [51]; cited from earlier work.
Assay [4] concerns alcohol-related responses. The note with it: preclinical and clinical studies, ref [6–18]; cited from earlier work. The source says: Alcohol use disorder (AUD) is a major public health problem with high morbidity and mortality. Its development is complex and the dopaminergic neurons from the ventral tegmental area (VTA) to the nucleus accumbens (NAc) have gained extra interest as they mediate alcohol-induced reward (for review see [2, 3]). Various biological systems participate in the ability of alcohol to interact with these dopamine neurons, and gut-brain peptides have been implied as important modulators (for review see [4]). One of these peptides is ghrelin (i.e., acyl-ghrelin, the acylated form of ghrelin [ ...

Turning to `CCCCCn1cc(C(=O)c2cccc3ccccc23)c2ccccc21` [JWH-018], the “effect on target receptor CB1” value in the assay on CB1 receptor is on record as “full target receptor inhibition”.

With `CCO` [alcohol], in the assay with dopamine in NAc shell, the “dopamine in NAc shell, alcohol vs vehicle” value is listed as “elevated dopamine in NAc shell (80 min P < 0.001, 160 min P = 0.0011, 180 min P = 0.0037, 200 min P < 0.0001)”. The “locomotor stimulation by alcohol” value is “hyperlocomotion after alcohol (P = 0.0225)” with male mice (alcohol 1.75 g/kg IP (experiment with DAG 0.5 mg/kg)) and “caused a locomotor simulation (P = 0.0136)” in the assay on male mice (alcohol 1.75 g/kg IP vs vehicle, n = 8 per group (experiment with DAG 1 mg/kg)).

On to `COC(=O)[C@H]1[C@@H](OC(=O)c2ccccc2)C[C@@H]2CC[C@H]1N2C` [cocaine], for which the “inhibition of NET” value in the assay on NET was “full NET and SERT inhibition at 12.5 µM and 6.25 µM”. Besides, the “inhibition of DAT, share of full transporter inhibition” value in assay [1] is 70–80%. Besides, in the assay on SERT, the “inhibition of SERT” value is “full NET and SERT inhibition at 12.5 µM and 6.25 µM”.

“LEAP2: recently discovered inverse GHSR agonist (MTPFWRGVSLRPIGASCRDDSECITRLCRKRRCSLSVAQE; ends and bridges not checked; cysteine pairing not given here; UniProt Q969E1 38-77, looked up)”: in assay [2], the alcohol intake entry is listed as “reduces alcohol intake in high alcohol-consuming mice after its central infusion”.

As to “ghrelin (GSSFLSPEHQRVQQRKESKKPPAKLQPR; ends and bridges not checked; also: octanoylated, position not given here; UniProt Q9UBU3 24-51, looked up) [orexigenic peptide, the acylated form of ghrelin]”, the memory function entry in assay [3] is “enhance memory function via hippocampal mechanisms”. The alcohol-related responses result in assay [4] was “enhances”.
